According to patent publication US8999974B2, “Acyl piperazine derivatives as TTX-S blockers” (Raqualia Pharma Inc., priority 2010, dated 2015):

How the values were obtained:
human Nav1.7 = target: T1, human Nav1.7 (Homo sapiens, UniProt Q15858); experiment: FRET assay (EFS, FDSS) on CHO cells expressing human NaV1.7 channels; assay type: cell-based; settings: for IC50: FRET assay, CHO cells expressing human NaV1.7, read-out: IC50 against Nav1.7
T1 construct: expressed in transfected cells; host or cells: CHO
Procedure: This screen was used to determine the effects of compounds on human NaV1.3, human Nav1.7, and human Nav1.5 channels, utilising electrical field stimulation (EFS) system in 96-well plate format on FDSS (Hamamatsu Photonics) platform. The change of membrane potential was monitored with FRET dye pair, oxonol (DiSBAC2(3)) and coumarin (CC2-DMPE).
CHO cells expressing human NaV1.7 channels were grown in T225 flasks, in a 5% CO2 humidified incubator to about 80% confluence. Media composition consisted of HAM/F12 with Glutamax I, 10% FCS, 100 units/ml Penicillin and 100 microgram/ml Hygromycin.
Protocol: • Seeded each cell lines (1×10^5 cells/well) into poly-D-lysine coated 96-well plates prior to experimentation. • Incubated at 37° C. in 5% CO2 for 24 hours. • Washed each well with assay buffer (140 mM NaCl, 4.5 mM KCl, 10 mM D-Glucose, 2 mM CaCl2, 1 mM MgCl2, 10 mM HEPES, pH 7.4 adjusted with NaOH) twice. • Added 1st loading solution containing 10 microM CC2-DMPE and 0.06% Pluronic F-127 in assay buffer. • Incubated the plate at room temperature in dark for 1 hour. • Removed 1st loading solution and added 2nd loading solution containing 15 microM DiSBAC2(3), 0.555 mM VABSC-1 and 0.004% Pluronic F-127 in assay buffer. • Placed the plate under the dark at room temperature for 25 minutes. • Added compound solutions into the assay plate. • Set the assay plate in FDSS and placed an EFS device on the plate. • Measured EFS-induced fluorescent response by FDSS.
The data were analyzed and reported as normalized ratios of intensities measured at […]. The process of calculating these ratios was performed as follows:
[formula] This analysis was performed using a computerized specific program designed for FDSS generated data. Fluorescence ratio values were plotted using XLfit to determine an IC50 value for each compound.

human NaV1.3 = target: T2, human NaV1.3 (Homo sapiens, UniProt Q9NY46); experiment: FRET assay (EFS, FDSS) on HEK293 cells expressing human NaV1.3 channels; assay type: cell-based; settings: for IC50: FRET assay, HEK293 cells expressing human NaV1.3, read-out: IC50 against Nav1.3
T2 construct: expressed in transfected cells; host or cells: HEK293
How it was run: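 Membrane potential in HEK293 cells stably expressing human NaV1.3, read by FRET (CC2-DMPE 10 µM / DiSBAC2(3) 15 µM with 0.555 mM VABSC-1) after electrical field stimulation, in HEPES-buffered saline pH 7.4. Compounds added after dye loading at room temperature. IC50 from normalized 440 nm fluorescence ratios.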

[1] = comparison compound of WO 2008147864

T2 sequence (Q9NY46 whole entry): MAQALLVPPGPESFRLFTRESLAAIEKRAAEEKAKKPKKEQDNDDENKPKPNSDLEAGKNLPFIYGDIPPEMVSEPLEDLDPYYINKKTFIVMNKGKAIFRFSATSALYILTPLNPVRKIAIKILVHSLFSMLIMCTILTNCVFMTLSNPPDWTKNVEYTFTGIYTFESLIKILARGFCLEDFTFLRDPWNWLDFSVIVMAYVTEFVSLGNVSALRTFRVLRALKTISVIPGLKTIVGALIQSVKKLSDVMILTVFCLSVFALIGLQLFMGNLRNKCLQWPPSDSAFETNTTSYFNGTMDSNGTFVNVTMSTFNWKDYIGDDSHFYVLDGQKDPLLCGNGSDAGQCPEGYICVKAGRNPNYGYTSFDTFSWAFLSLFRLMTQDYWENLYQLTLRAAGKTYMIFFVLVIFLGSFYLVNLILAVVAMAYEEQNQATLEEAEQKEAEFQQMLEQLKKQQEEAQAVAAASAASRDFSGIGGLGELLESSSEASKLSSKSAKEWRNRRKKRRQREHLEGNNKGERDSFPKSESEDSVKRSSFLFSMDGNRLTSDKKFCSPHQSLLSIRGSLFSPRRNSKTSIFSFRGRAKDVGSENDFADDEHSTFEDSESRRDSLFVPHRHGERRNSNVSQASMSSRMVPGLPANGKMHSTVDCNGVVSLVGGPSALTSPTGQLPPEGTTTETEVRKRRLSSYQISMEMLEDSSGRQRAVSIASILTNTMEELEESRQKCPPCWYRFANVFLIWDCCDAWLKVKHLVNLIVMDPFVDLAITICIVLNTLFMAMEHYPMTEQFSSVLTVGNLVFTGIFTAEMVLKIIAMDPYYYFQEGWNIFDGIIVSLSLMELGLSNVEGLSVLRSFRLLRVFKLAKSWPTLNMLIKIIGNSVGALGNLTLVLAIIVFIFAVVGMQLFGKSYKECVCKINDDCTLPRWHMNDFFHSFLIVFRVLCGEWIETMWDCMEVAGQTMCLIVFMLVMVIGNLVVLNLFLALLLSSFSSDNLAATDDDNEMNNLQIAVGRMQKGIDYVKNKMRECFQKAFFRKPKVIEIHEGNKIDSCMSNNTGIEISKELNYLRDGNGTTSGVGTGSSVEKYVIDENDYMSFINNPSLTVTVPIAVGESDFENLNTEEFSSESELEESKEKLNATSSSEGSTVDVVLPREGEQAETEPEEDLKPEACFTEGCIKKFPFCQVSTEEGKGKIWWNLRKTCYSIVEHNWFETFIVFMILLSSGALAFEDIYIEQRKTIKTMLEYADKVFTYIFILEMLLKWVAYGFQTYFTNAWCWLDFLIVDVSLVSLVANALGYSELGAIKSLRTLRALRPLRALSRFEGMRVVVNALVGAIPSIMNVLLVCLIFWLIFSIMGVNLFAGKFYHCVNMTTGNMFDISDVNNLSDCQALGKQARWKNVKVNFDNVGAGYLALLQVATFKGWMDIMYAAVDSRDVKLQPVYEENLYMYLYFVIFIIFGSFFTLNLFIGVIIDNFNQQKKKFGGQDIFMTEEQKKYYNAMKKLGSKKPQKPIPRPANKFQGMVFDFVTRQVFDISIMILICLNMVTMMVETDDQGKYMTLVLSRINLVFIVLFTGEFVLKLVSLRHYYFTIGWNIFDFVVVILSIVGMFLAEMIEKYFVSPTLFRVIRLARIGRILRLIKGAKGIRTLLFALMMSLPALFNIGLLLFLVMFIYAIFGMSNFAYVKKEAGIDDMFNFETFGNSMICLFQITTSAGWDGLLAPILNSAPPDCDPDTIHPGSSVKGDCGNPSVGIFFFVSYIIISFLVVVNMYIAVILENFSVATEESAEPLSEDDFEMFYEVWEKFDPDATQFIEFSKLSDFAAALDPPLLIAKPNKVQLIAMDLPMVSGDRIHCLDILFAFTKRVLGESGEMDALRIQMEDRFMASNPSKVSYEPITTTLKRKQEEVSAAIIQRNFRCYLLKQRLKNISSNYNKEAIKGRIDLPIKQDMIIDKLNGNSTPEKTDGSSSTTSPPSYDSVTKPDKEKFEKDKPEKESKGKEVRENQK
T1 sequence (Q15858 whole entry): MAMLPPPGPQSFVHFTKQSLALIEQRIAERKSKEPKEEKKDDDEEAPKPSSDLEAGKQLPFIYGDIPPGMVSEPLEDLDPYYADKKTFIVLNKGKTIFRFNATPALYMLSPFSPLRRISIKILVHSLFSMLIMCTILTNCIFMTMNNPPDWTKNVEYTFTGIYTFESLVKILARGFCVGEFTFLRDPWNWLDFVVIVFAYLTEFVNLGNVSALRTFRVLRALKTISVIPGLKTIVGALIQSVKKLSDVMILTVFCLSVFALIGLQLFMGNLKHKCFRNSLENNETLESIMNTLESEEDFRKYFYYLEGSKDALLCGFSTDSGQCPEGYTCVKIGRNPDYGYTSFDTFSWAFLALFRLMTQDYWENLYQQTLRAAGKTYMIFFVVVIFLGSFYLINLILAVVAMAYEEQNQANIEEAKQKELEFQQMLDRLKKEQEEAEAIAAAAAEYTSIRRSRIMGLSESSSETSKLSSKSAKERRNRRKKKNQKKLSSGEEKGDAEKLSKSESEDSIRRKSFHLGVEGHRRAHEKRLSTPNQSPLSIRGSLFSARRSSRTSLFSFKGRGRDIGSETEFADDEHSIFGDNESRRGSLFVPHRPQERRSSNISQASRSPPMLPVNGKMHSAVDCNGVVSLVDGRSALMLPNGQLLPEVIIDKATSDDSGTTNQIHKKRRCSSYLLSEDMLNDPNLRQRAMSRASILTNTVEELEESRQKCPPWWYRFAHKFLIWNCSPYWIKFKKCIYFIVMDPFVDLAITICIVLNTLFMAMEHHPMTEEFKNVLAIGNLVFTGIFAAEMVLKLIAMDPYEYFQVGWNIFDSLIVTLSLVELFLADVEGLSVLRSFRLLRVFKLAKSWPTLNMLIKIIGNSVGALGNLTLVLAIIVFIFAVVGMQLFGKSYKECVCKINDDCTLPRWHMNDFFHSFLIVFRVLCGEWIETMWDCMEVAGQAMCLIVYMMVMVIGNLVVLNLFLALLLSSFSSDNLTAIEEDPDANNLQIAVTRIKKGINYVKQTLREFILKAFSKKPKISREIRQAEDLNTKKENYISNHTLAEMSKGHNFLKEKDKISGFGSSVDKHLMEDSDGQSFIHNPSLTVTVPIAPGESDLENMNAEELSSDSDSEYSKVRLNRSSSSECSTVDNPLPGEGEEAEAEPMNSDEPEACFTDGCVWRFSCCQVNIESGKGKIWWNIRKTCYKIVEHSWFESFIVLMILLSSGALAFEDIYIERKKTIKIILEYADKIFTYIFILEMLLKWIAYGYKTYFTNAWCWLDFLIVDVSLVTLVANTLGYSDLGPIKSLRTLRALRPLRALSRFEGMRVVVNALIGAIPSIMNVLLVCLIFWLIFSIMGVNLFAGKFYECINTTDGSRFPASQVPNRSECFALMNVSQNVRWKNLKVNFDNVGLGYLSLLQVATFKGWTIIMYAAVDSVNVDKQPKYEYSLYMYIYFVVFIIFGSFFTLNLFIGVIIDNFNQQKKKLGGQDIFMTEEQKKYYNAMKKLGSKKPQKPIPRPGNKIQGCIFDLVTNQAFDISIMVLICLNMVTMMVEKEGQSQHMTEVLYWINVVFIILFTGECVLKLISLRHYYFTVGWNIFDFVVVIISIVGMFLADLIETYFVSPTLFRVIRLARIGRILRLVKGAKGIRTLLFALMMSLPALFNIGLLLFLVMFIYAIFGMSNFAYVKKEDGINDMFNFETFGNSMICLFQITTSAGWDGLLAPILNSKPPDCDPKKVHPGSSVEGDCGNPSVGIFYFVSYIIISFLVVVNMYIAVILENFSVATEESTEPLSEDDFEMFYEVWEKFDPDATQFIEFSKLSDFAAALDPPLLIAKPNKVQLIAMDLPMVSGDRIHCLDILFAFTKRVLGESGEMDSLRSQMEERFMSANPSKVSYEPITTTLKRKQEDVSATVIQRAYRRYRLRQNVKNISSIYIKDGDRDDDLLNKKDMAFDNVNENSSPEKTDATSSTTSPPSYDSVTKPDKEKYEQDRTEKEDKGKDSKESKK

| Compound | activity against NaV1.7 (human Nav1.7; [1]) | activity against NaV1.3 (human NaV1.3; [1]) | IC50 (human Nav1.7) [µM] | IC50 (human NaV1.3) [µM] |
| --- | --- | --- | --- | --- |
| O=C(c1ccc2c(=O)n(CCc3ccccc3)c(=O)[nH]c2c1)N1CCN(c2ncccn2)CC1 [3-(2-phenylethyl)-7-[(4-pyrimidin-2-ylpiperazin-1-yl)carbonyl]quinazoline-2,4(1H,3H)-dione] | no activity | no activity |  |  |
| CC(C)COc1cc(N2CCN(C(=O)c3cccc(OC(F)(F)F)c3)CC2)ncn1 [Example 15, (4-(6-isobutoxypyrimidin-4-yl)piperazin-1-yl)(3-(trifluoromethoxy)phenyl)methanone] |  |  | < 3 | < 3 |
| CC(C)COc1cc(N2CCN(C(=O)c3nn(C)c4ccccc34)CC2)ncn1 [Example 22, (4-(6-isobutoxypyrimidin-4-yl)piperazin-1-yl)(1-methyl-1H-indazol-3-yl)methanone] |  |  | < 3 | < 3 |
| CC(C)COc1cc(N2CCN(C(=O)COc3ccc(F)cc3)CC2)ncn1 [Example 24, 2-(4-fluorophenoxy)-1-(4-(6-isobutoxypyrimidin-4-yl)piperazin-1-yl)ethanone] |  |  | < 3 | < 3 |
| CC(C)COc1cc(N2CCN(C(=O)CCn3ccc4ccccc43)CC2)ncn1 [Example 59, 3-(1H-indol-1-yl)-1-(4-(6-isobutoxypyrimidin-4-yl)piperazin-1-yl)propan-1-one] |  |  | < 3 | < 3 |
| COc1cccc(OCC(=O)N2CCN(c3cc(OCC(C)C)ncn3)CC2)c1 [Example 70, 1-(4-(6-isobutoxypyrimidin-4-yl)piperazin-1-yl)-2-(3-methoxyphenoxy)ethanone] |  |  | < 3 | < 3 |
| CC(C)COc1cc(N2CCN(C(=O)CNC(=O)c3ccc(OCC(F)(F)F)nc3)CC2)ncn1 [Example 74, N-(2-(4-(6-isobutoxypyrimidin-4-yl)piperazin-1-yl)-2-oxoethyl)-6-(2,2,2-trifluoroethoxy)nicotinamide] |  |  | < 3 | < 3 |
| CC(C)COc1cc(N2CCN(C(=O)CNC(=O)c3nn(C)c4ccccc34)CC2)ncn1 [Example 76, N-(2-(4-(6-isobutoxypyrimidin-4-yl)piperazin-1-yl)-2-oxoethyl)-1-methyl-1H-indazole-3-carboxamide] |  |  | < 3 |  |
| CC(C)COc1cc(N2CCN(C(=O)COc3cccc4cccnc34)CC2)ncn1 [Example 77, 1-(4-(6-isobutoxypyrimidin-4-yl)piperazin-1-yl)-2-(quinolin-8-yloxy)ethanone] |  |  | < 3 | < 3 |
| CC(C)COc1cc(N2CCN(C(=O)c3cc4ccccc4s3)CC2)ncn1 [Example 86] |  |  | < 3 | < 3 |
| CC(C)COc1cc(N2CCN(C(=O)CCOc3ccc(F)cc3)CC2)ncn1 [Example 89, 3-(4-fluorophenoxy)-1-(4-(6-isobutoxypyrimidin-4-yl)piperazin-1-yl)propan-1-one] |  |  | < 3 | < 3 |
| CC(C)COc1cc(N2CCN(C(=O)c3cc(-c4ccccc4)on3)CC2)ncn1 [Example 90] |  |  | < 3 | < 3 |
| CC(C)COc1cc(N2CCN(C(=O)CNC3CCCCC3)CC2)ncn1 [Example 100, 2-(cyclohexylamino)-1-(4-(6-isobutoxypyrimidin-4-yl)piperazin-1-yl)ethanone] |  |  | < 3 |  |
| CC(C)COc1cc(N2CCN(C(=O)Cc3c[nH]c4ccccc34)CC2)ncn1 [Example 102, 2-(1H-indol-3-yl)-1-(4-(6-isobutoxypyrimidin-4-yl)piperazin-1-yl)ethanone] |  |  | < 3 |  |
| CC(C)COc1cc(N2CCN(C(=O)Cn3nc4ccccc4n3)CC2)ncn1 [Example 105, 2-(2H-benzo[d][1,2,3]triazol-2-yl)-1-(4-(6-isobutoxypyrimidin-4-yl)piperazin-1-yl)ethanone] |  |  | < 3 | < 3 |
| O=C(Cc1c[nH]c2ccc(F)cc12)N1CCN(c2cc(OCC(F)(F)F)ncn2)CC1 [Example 110, 2-(5-fluoro-1H-indol-3-yl)-1-(4-(6-(2,2,2-trifluoroethoxy)pyrimidin-4-yl)piperazin-1-yl)ethanone] |  |  | < 3 |  |
| CC(C)COc1cc(N2CCN(C(=O)CSc3ccccc3)CC2)ncn1 [Example 120, 1-(4-(6-isobutoxypyrimidin-4-yl)piperazin-1-yl)-2-(phenylthio)ethanone] |  |  | < 3 | < 3 |

| Compound | activity against NaV1.7 (human Nav1.7; [1]) | activity against NaV1.3 (human NaV1.3; [1]) | IC50 (human Nav1.7) [µM] | IC50 (human NaV1.3) [µM] |
| --- | --- | --- | --- | --- |
| CC(C)COc1cc(N2CCN(C(=O)COc3ccc(F)c4cccnc34)CC2)ncn1 [Example 129, 2-((5-fluoroquinolin-8-yl)oxy)-1-(4-(6-isobutoxypyrimidin-4-yl)piperazin-1-yl)ethanone] |  |  | < 3 | < 3 |
| CC(C)COc1cc(N2CCN(C(=O)CCOc3ccccc3)CC2)ncn1 [Example 131, 1-(4-(6-isobutoxypyrimidin-4-yl)piperazin-1-yl)-3-phenoxypropan-1-one] |  |  | < 3 | < 3 |
| Cc1cccc(OCCC(=O)N2CCN(c3cc(OCC(C)C)ncn3)CC2)c1 [Example 132, 1-(4-(6-isobutoxypyrimidin-4-yl)piperazin-1-yl)-3-(m-tolyloxy)propan-1-one] |  |  | < 3 | < 3 |
| CC(C)COc1cc(N2CCN(C(=O)c3cc(-c4ccccc4)n(C)n3)CC2)ncn1 [Example 133, (4-(6-isobutoxypyrimidin-4-yl)piperazin-1-yl)(1-methyl-5-phenyl-1H-pyrazol-3-yl)methanone] |  |  | < 3 | < 3 |
| CC(C)COc1cc(N2CCN(C(=O)COc3cccc4[nH]ccc34)CC2)ncn1 [Example 137, 2-((1H-indol-4-yl)oxy)-1-(4-(6-isobutoxypyrimidin-4-yl)piperazin-1-yl)ethanone] |  |  | < 3 |  |
| O=C(CCOc1ccc(F)cc1)N1CCN(c2cc(OCC(F)(F)F)ncn2)CC1 [Example 139, 3-(4-fluorophenoxy)-1-(4-(6-(2,2,2-trifluoroethoxy)pyrimidin-4-yl)piperazin-1-yl)propan-1-one] |  |  | < 3 | < 3 |
| CC(C)COc1cc(N2CCN(C(=O)COc3cccc4c3ccn4C)CC2)ncn1 [Example 141, 1-(4-(6-isobutoxypyrimidin-4-yl)piperazin-1-yl)-2-((1-methyl-1H-indol-4-yl)oxy)ethanone] |  |  | < 3 | < 3 |
| CC(C)COc1cc(N2CCN(C(=O)COc3ccccc3C(F)(F)F)CC2)ncn1 [Example 143, 1-(4-(6-isobutoxypyrimidin-4-yl)piperazin-1-yl)-2-(2-(trifluoromethyl)phenoxy)ethanone] |  |  | < 3 |  |
| CC(C)COc1cc(N2CCN(C(=O)COc3cccc(OC(F)(F)F)c3)CC2)ncn1 [Example 145, 1-(4-(6-isobutoxypyrimidin-4-yl)piperazin-1-yl)-2-(3-(trifluoromethoxy)phenoxy)ethanone] |  |  | < 3 | < 3 |
| O=C(COc1cccc2cccnc12)N1CCN(c2cc(OCC(F)(F)F)ncn2)CC1 [Example 156, 2-(quinolin-8-yloxy)-1-(4-(6-(2,2,2-trifluoroethoxy)pyrimidin-4-yl)piperazin-1-yl)ethanone] |  |  | < 3 |  |
| CC(C)COc1cc(N2CCN(C(=O)COc3ccc4ccccc4n3)CC2)ncn1 [Example 160, 1-(4-(6-isobutoxypyrimidin-4-yl)piperazin-1-yl)-2-(quinolin-2-yloxy)ethanone] |  |  | < 3 |  |
| O=C(c1csc(-c2ccccc2)n1)N1CCN(c2cc(OCC(F)(F)F)ncn2)CC1 [Example 166, (2-phenylthiazol-4-yl)(4-(6-(2,2,2-trifluoroethoxy)pyrimidin-4-yl)piperazin-1-yl)methanone] |  |  | < 3 |  |
| COc1ccccc1-c1cc(C(=O)N2CCN(c3cc(OCC(C)C)ncn3)CC2)[nH]n1 [Example 175] |  |  | < 3 |  |
| CC(C)COc1cc(N2CCN(C(=O)Cn3ccc4ccccc4c3=O)CC2)ncn1 [Example 236, 2-(2-(4-(6-isobutoxypyrimidin-4-yl)piperazin-1-yl)-2-oxoethyl)isoquinolin-1(2H)-one] |  |  | < 3 |  |
| O=C(c1cncn1-c1ccccc1C(F)(F)F)N1CCN(c2cc(OCC(F)(F)F)ncn2)CC1 [Example 243, (4-(6-(2,2,2-trifluoroethoxy)pyrimidin-4-yl)piperazin-1-yl)(1-(2-(trifluoromethyl)phenyl)-1H-imidazol-5-yl)methanone] |  |  | < 3 |  |
| Cc1onc(-c2ccccc2)c1C(=O)N1CCN(c2cc(OCC(F)(F)F)ncn2)CC1 [Example 245, (5-methyl-3-phenylisoxazol-4-yl)(4-(6-(2,2,2-trifluoroethoxy)pyrimidin-4-yl)piperazin-1-yl)methanone] |  |  | < 3 |  |
